Assay [1] relates to surface CD25 on KG-1 cells. The assay can be described thus: Surface CD25 by flow cytometry (FACS) after Cytarabine (Example 5). The assay is classed as cell-based. The settings on record: CD25(+) KG-1 cells (low CD25) incubated with Cytarabine. On the procedure: (§1) After incubation, two parameters were measured: the amount of surface CD25 (as determined by flow cytometry) and the in vitro cytotoxicity of the combinations (as determined by CellTiter-Glo® or MTS assays). Cytotoxic synergy was calculated by transforming the cell viability data into fraction affected, and calculating the combination index (Table 1) using the CalcuSyn analysis program.
On the technique in general: In flow cytometry, cells or beads pass a laser one at a time.

Assay [2] relates to surface CD25 on Karpas299 cell line. The description is as above. The assay is classed as cell-based. The note with it: Karpas299 cell line (high in CD25) incubated with Cytarabine. The procedure: as §1
Assay [3] concerns IL2Ralpha (CD25) mRNA in KG-1 cells. The assay can be described thus: CD25 mRNA expression by TaqMan qRT-PCR (Example 9). Format: cell-based. The settings on record: 30 nM Cytarabine. The procedure: (§2) Karpas-299, EOL-1 or KG-1 cells were incubated with 30 nM Cytarabine for 24 hours before mRNA was isolated and reverse-transcribed. cDNA was probed for IL2Ralpha (CD25) by TagMan qRT-PCR. Mean fold change in expression compared to the untreated control was calculated using the ddCT method using the reference gene abl-1. A time-course to measure expression change over 3-4 days was also done in Karpas-299 (high CD25 expressing) and KG-1 cells (low CD25 expressing) under the same conditions, only extending incubation time with Cytarabine.

Assay [4] relates to IL2Ralpha (CD25) mRNA in Karpas-299 cells. The assay can be described thus: CD25 mRNA expression by TaqMan qRT-PCR (Example 9). The assay is classed as cell-based. The note with it: Karpas299 cells; 30 nM Cytarabine; over the 72 hour period. On the procedure:
as §2

The subject of assay [5] is CD25 surface protein on KG-1 cells. The assay can be described thus: CD25 surface protein, antibodies bound per cell, QuantiBRITE-PE flow cytometry (Example 9). The assay is classed as cell-based, human. From the text:
(§3) Cells were then washed and run on a Fortessa X20 flow cytometer.

The subject of assay [6] is CD25 surface protein on Karpas-299 cells. Described as above. The assay is classed as cell-based, human.
From the text: as §3

The subject of assay [7] is surface CD25 on Karpas299 cell line. The assay can be described thus: Surface CD25 by flow cytometry after decitabine (Example 6). The note with it: in the presence of decitabine. Further details: dose or concentration left out as unconfirmed. The assay is classed as cell-based.
Method: After incubation, two parameters were measured: the amount of surface CD25 (as determined by flow cytometry) and the in vitro cytotoxicity of the combinations (as determined by MTS assays).
The test system of another assay is advanced melanoma. The settings on record: phase III; compared to the standard of care (temozolomide or dacarbazine); cited from earlier work.

These results are taken from patent US11596696B2, “Combination therapy with an anti-CD25 antibody-drug conjugate” (ADC Therapeutics SA, priority 2017, dated 2023).

Regarding `Nc1ccn([C@@H]2O[C@H](CO)C(O)[C@@H]2O)c(=O)n1` (stereo in doubt) [Cytarabine, 4-amino-1-[(2R,3S,4R,5R)-3,4-dihydroxy-5-(hydroxymethyl)oxolan-2-yl] pyrimidin-2-one], the “Change in surface CD25 levels (FACS analysis)” value in assay [1] was “two-fold increase”. The “Change in surface CD25” value in assay [2] is recorded as “No increase”. The “Increase in CD25 mRNA expression vs untreated control” value in assay [3] (after 24 hours incubation) was determined as 2 fold; in assay [3] (after 48 hours incubation) it was 4 fold; in assay [3] (after 96 hours incubation) it was 3 fold. In assay [4], the “Effect on CD25 mRNA expression” value is “little effect”. Further, the “Mean number of CD25 antibodies bound per cell” value in assay [5] (KG-1 cells treated with 30 nM Cytarabine 24 hours (untreated ~200)) is ~400 antibodies per cell; in assay [6] (Karpas299 cells treated with 30 nM Cytarabine 24 hours (untreated the same)), ~60000 antibodies per cell. The “Levels of CD25 surface expression” value in assay [5] (KG-1 cells, 30 nM Cytarabine, 24 hours) is “significantly increased”. Also, the “Effect on CD25 surface protein expression” value in assay [6] (Karpas299 cells, 30 nM Cytarabine, 24 hour period) is recorded as “little effect”.
For the compound `Nc1ncn([C@H]2C[C@H](O)[C@@H](CO)O2)c(=O)n1` [Decitabine, 4-Amino-1-(2-deoxy-β-D-erythro-pentofuranosyl)-1,3,5-triazin-2(1H)-one], the “Amount of CD25 on the cells” value in assay [7] is on record as “no difference”.
Regarding tremelimumab: anti-CTLA4 antibody, the “Overall survival of patients” value in the assay on advanced melanoma was “did not significantly increase the overall survival”.
